Data reported in patent US20050239889A1, “In vivo release of endogenous anti-microbial mediators by leukotriene B4 (LTB4) administration” (priority 2004, published 2005).

Assays:
α-Defensins [1] = experiment: Plasma α-Defensins (ELISA) after intravenous LTB4 administration to human subjects, Phase I study; type: in vivo
Description: (§1) Plasma samples were obtained from 19 HIV-uninfected human volunteers taking part in a Phase I clinical study on the safety and tolerability of intravenously (i.v.) administered bolus of LTB4. In brief, 3 individuals received saline (placebo) and 16 (4 subjects/group) were administered LTB4 in doses ranging from 0.05 μg/kg to 50 μg/kg per day for 7 consecutive days. Venous blood was collected twice before injection (-5 and -2 minutes) to establish baseline values. Following the i.v. administration of saline or LTB4, blood samples were drawn at 0.5, 1, 2, 4, 6, and 24 hours post-injection into blood collection tubes, using EDTA as anti-coagulant. Immediately after blood collection, the samples were put on ice until processed. All plasma isolation procedures were carried out at 4° C. Plasma samples were stored at −80° C. until assayed by ELISA for α-Defensins (HyCult Biotechnology bv, The Netherlands) and MIP-β(Amersham/Pharmacia, Baie d'Urfé, Canada).
Healthy volunteers participating in a Phase I clinical study on the safety and tolerability of intravenously administered LTB4, were randomized into 5 groups: placebo (n=3), LTB4 0.05 μg/kg (n=4), LTB4 0.5 μg/kg (n=4), LTB4 5 μg/kg (n=4) and LTB4 50 μg/kg (n=4). LTB4 was administered once daily for 7 consecutive days and plasma samples (0-6 hours post-LTB4 administration) from all 19 volunteers were tested for the presence of α-Defensins using a commercial ELISA kit. The mean ± standard error of α-Defensins releases (ng/ml plasma) for each group are presented in FIG. 1 with statistical analysis performed using the placebos as control group. Healthy individuals received a placebo (3 subjects) or doses of LTB4 ranging form 0.05 μg/kg to 50 μg/kg (n=4 subjects/group). Plasma samples were obtained at various time points before and after LTB4 injections and the α-Defensin levels determined by ELISA. The data shown in FIG. 1 represent the mean ± standard error of α-Defensins (ng/mL plasma) of all subjects within each group. P values were determined by comparing the mean α-Defensin levels of each group that received LTB4 versus the placebo group at the same time points. *p<0.001; **p<0.05. Plasma samples obtained before placebo or LTB4 injections indicate that there were no significant differences in the basal levels of α-Defensins between the groups.

α-Defensins [2] = experiment: Plasma α-Defensins (ELISA) after subcutaneous LTB4 administration to monkeys; type: in vivo, Macaca fascicularis; conditions: macaques
Description: Two macaques (Macaca fascicularis) were used for the study. For subcutaneous injections, the areas to be injected were first shaved one day before dosing. Volumes of 0.075 mL (monkey IJI) or 0.1 mL (monkey JKN) of LTB4 solution were administered subcutaneously in the arm of the animal to compensate for slight difference between both monkeys. Venous blood samples were collected at various time points with all plasma isolation procedures performed at 4° C. Platelet-free plasma samples were stored at −80° C. until assayed for α-Defensins using a commercial ELISA kit (HyCult Biotechnology bv, The Netherlands). We next studied the change in plasmatic concentration of the antimicrobial peptides α-Defensins in monkeys following subcutaneous (s.c.) administration of LTB4. Monkeys were injected s.c. with 5,5 μg/kg or 50 μg/kg of LTB4 and blood samples were taken at various time points and used for (α-Defensins measurements in the plasma, using a commercial ELISA kit. The results obtained are presented in FIGS. 3A (5,5 μg/kg) and 3B (50 μg/kg). Two macaques (IJI and JKN) were injected subcutaneously with 5,5 μg/kg (A) or 50 μg/kg (B) of LTB4. Blood samples were collected at various time points and α-Defensins levels measured in plasma samples using a commecial ELISA kit. Overall, the data obtained indicate that α-Defensins levels in plasma remain relatively stable up to 15 minutes post-LTB4 administration. α-Defensins levels started to increase by 30 minutes and peaked at two hours post LTB4 administration. […] For monkeys that received 50 μg/kg, (α-Defensins levels remained at their highest up to 4 hours post injection, followed by a gradual decrease. In both sets (5,5 μg/kg and 50 μg/kg), the levels of α-Defensins remained above baseline values up to 6 hours following LTB4 delivery

MIP-1β = experiment: Plasma MIP-1β (ELISA) after intravenous LTB4 administration to human subjects, Phase I study; type: in vivo; conditions: i.v.
Description: as §1
Considering that soluble anti-HIV factors include β-chemokines and that neutrophils are capable of producing MIP-1β, we measured the levels of this β-chemokine in plasma of individuals that received a placebo or LTB4 (same cohorts as mentioned above). Plasma samples from healthy subjects that received a placebo (n=3) or LTB4 (5 and 50 μg/kg [n=4 subjects/group]) were obtained at various time points before and after LTB4 injections. Data are expressed as mean ± […] of the mean of MIP-1β levels (pg/ml) for all subjects within each group. P values were determined by comparing the mean MIP-1β levels of each group that received LTB4 versus the placebo group at the same time points. *p<0.025. […] Plasma samples from subjects that received the 2 lowest doses of LTB4 were not tested for MIP-1β.

CCCCC/C=C\C[C@@H](O)/C=C/C=C/C=C\[C@@H](O)CCCC(=O)O [LTB4, 5S,12R-dihydroxy-6,8,10,14(Z,E,E,Z)-eicosatetraenoic acid]
release of α-Defensins in plasma, dose dependence (α-Defensins [1]; i.v. bolus once daily for 7 days, 0.05 to 50 μg/kg, versus placebo group): triggered dose-dependent release of α-Defensins | increase in plasmatic α-Defensins (α-Defensins [1]; i.v., 0.5 μg/kg): although not significant, caused a measurable increase in plasmatic α-Defensins | time of maximal effect on plasmatic α-Defensins post-LTB4 administration (α-Defensins [1]; i.v., 0.5 μg/kg): two | time of peak α-Defensin levels (α-Defensins [1]; i.v., 5 μg/kg and 50 μg/kg): 2 h | time to significant increase of α-Defensin release following LTB4 injections (α-Defensins [1]; i.v., 5 μg/kg and 50 μg/kg): 30 min | peak α-Defensin levels over the placebo group (α-Defensins [1]; i.v., 5 μg/kg and 50 μg/kg, at 2 hours, p<0.001): 5-7 fold | time α-Defensin levels remained above the control levels post-LTB4 administration (α-Defensins [1]; i.v., 5 μg/kg and 50 μg/kg, p<0.05): up to 6 hours | α-Defensins levels 24 hours post-LTB4 administration (α-Defensins [1]; i.v., 24 hours): back to the pre-injection levels | α-Defensins release in plasma (α-Defensins [1]; i.v., lowest dose of LTB4 (0.05 μg/kg)): did not significantly enhanced α-Defensins release | time α-Defensins levels remained at their highest post injection (α-Defensins [2]; s.c., 50 μg/kg, followed by a gradual decrease): up to 4 hours | time of peak α-Defensins levels post LTB4 administration (α-Defensins [2]; s.c., 5,5 μg/kg or 50 μg/kg): two | time α-Defensins levels in plasma remain relatively stable post-LTB4 administration (α-Defensins [2]; s.c., 5,5 μg/kg or 50 μg/kg): up to 15 minutes | time α-Defensins levels started to increase (α-Defensins [2]; s.c., 5,5 μg/kg or 50 μg/kg): 30 min | course of α-Defensins levels after the peak (α-Defensins [2]; s.c., 5,5 μg/kg, experiment ended at hour 6): started to drop by the fourth hour and continued to do so up to hour 6 | time levels of α-Defensins remained above baseline values following LTB4 delivery (α-Defensins [2]; s.c., both 5,5 μg/kg and 50 μg/kg): up to 6 hours | start of elevation in plasmatic MIP-1β levels post-LTB4 injection (MIP-1β; 5-50 μg/kg): 1 h | time of maximal plasmatic MIP-1β levels post-LTB4 injection (MIP-1β; 5-50 μg/kg): 2 h | MIP-1β plasmatic levels at 6 hours post-LTB4 administration (MIP-1β; 5-50 μg/kg, 6 hours): had returned to original levels | statistical significance of MIP-1β elevation versus placebo (MIP-1β; 5 and 50 μg/kg groups, n=4 per group, p<0.025): statistical significance was observed only for those that received the highest dose of LTB4
